The text below walks through data of PubChem BioAssay (NCI).

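96-well plates; 48 h exposure; 5 concentrations. Endpoints by linear interpolation between flanking doses. Not reached: highest tested concentration assigned. TGI: total growth inhibition.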

Test systems include HCT-116 colon; BT-549 breast; 786-0 renal; PC-3 prostate; OVCAR-5 ovarian; UACC-257 melanoma; MDA-N; K-562 leukemia; SNB-19 CNS; ACHN renal; NCI-H23 lung.
What all share (test): NCI-60 cell line screen, 48 h

For `CN1CC(c2ccccc2)N(CCCCN2CC(c3ccccc3)N(C)CC2c2ccccc2)CC1c1ccccc1` (stereo not given), the TGI in the assay with HCT-116 colon was 24.2 µM; in the assay on BT-549 breast, > 100 µM; in the assay on 786-0 renal, > 100 µM; with PC-3 prostate, > 100 µM; in the assay with OVCAR-5 ovarian it was > 100 µM; with UACC-257 melanoma, 42.6 µM. Also, the TGI with MDA-N, in the assay with K-562 leukemia, in the assay on SNB-19 CNS and in the assay on ACHN renal was > 100 µM throughout.
On to `CCCCCCCCCCCCCCCCCCOCC(O)COP(=O)(O)OCC1OC(n2cc(F)c(=O)[nH]c2=O)CC1O` (stereo not given), for which the TGI in the assay with HCT-116 colon was found to be 19.6 µM; with BT-549 breast it was 27.3 µM; in the assay with 786-0 renal it was 17.8 µM; with PC-3 prostate it was 18.8 µM; in the assay with OVCAR-5 ovarian, 26.3 µM; in the assay with UACC-257 melanoma it was 32.1 µM. In addition, the TGI with MDA-N is 28.2 µM; in the assay on K-562 leukemia, 32.1 µM; with NCI-H23 lung, 16.9 µM; in the assay with SNB-19 CNS, 25.3 µM; with ACHN renal it was > 41.6 µM.
Consider `CCOC(=O)c1c(N2CCOCC2)[nH]c(=O)c(C(c2ccc(OC)cc2)c2c(O)c(C(=O)OCC)c(N3CCOCC3)[nH]c2=O)c1O`, for which the TGI in the assay on HCT-116 colon, in the assay with BT-549 breast, in the assay with 786-0 renal, in the assay with PC-3 prostate, in the assay with OVCAR-5 ovarian and in the assay on UACC-257 melanoma was > 100 µM throughout. Moreover, the TGI in the assay with MDA-N, in the assay on K-562 leukemia, with NCI-H23 lung, with SNB-19 CNS and in the assay with ACHN renal was > 100 µM each time.
In the case of `CC(C)(C)N1Cc2ccccc2/C(=C/Sc2ccccc2)C1=O`, the TGI came out at 19.8 µM with HCT-116 colon; 20.1 µM in the assay on BT-549 breast; 24.8 µM in the assay with 786-0 renal; 26.6 µM with PC-3 prostate; 39.8 µM with OVCAR-5 ovarian; 31.2 µM in the assay with UACC-257 melanoma. Further, the TGI was 21.8 µM in the assay on MDA-N; > 100 µM in the assay with K-562 leukemia; 24.2 µM with NCI-H23 lung; 30.9 µM with SNB-19 CNS; 32 µM with ACHN renal.
Turning to `Cc1ccc(O)c(C2=NNC(c3cccc(Br)c3)C2)c1` (stereo not given), the TGI in the assay on HCT-116 colon, with BT-549 breast, with 786-0 renal, in the assay on PC-3 prostate, with OVCAR-5 ovarian and in the assay with UACC-257 melanoma was > 100 µM each time. Also, the TGI is > 100 µM with MDA-N; > 100 µM with K-562 leukemia; > 100 µM in the assay with NCI-H23 lung; 76.3 µM with SNB-19 CNS; > 100 µM with ACHN renal.
With `Cc1cc(S(=O)(=O)Nc2nc(N)nc(N3N=CCC3C)n2)c(S)cc1Cl` (stereo not given), the TGI in the assay on HCT-116 colon, in the assay on BT-549 breast, in the assay on 786-0 renal, in the assay on PC-3 prostate, in the assay on OVCAR-5 ovarian and in the assay with UACC-257 melanoma was > 10 µM each time. Further, the TGI in the assay with MDA-N, in the assay with K-562 leukemia, in the assay with NCI-H23 lung, with SNB-19 CNS and with ACHN renal was > 10 µM in each case.
Take `CCCCSc1n/c(=C\c2ccc(N(C)C)cc2)c2nnnn12`: the TGI in the assay on HCT-116 colon, with BT-549 breast, in the assay on 786-0 renal, in the assay on PC-3 prostate, in the assay with OVCAR-5 ovarian and in the assay with UACC-257 melanoma was > 100 µM in each case. Further, the TGI with MDA-N, in the assay with K-562 leukemia, in the assay on NCI-H23 lung, with SNB-19 CNS and with ACHN renal was > 100 µM in each case.
Turning to `COc1ccc2c(c1)CCc1c-2n(CCN(C)C)c2ccc(OC)cc12`, the TGI in the assay with HCT-116 colon was > 100 µM; in the assay with BT-549 breast, > 100 µM; in the assay on 786-0 renal it was > 100 µM; with PC-3 prostate, 46 µM; with OVCAR-5 ovarian it was 51.6 µM; with UACC-257 melanoma, > 100 µM. Besides, the TGI was 95.2 µM in the assay with MDA-N; > 100 µM with K-562 leukemia; 50.2 µM in the assay on NCI-H23 lung; 36.5 µM with SNB-19 CNS; > 100 µM in the assay on ACHN renal.
Consider `COC(OC)C(O)C1OC=CC1n1cnc2c(N)ncnc21` (stereo not given), for which the TGI in the assay with HCT-116 colon, with BT-549 breast, in the assay with 786-0 renal, in the assay on PC-3 prostate, with UACC-257 melanoma and in the assay with MDA-N was > 100 µM throughout. Moreover, the TGI with K-562 leukemia, in the assay with NCI-H23 lung and in the assay with ACHN renal was > 100 µM in each case.
In the case of `CN1C2CC(=O)CC1[C@@H]1OC(c3ccccc3)O[C@H]21` (stereo not given in full), the TGI in the assay on HCT-116 colon, in the assay on BT-549 breast, with 786-0 renal, with PC-3 prostate, in the assay on UACC-257 melanoma and in the assay on MDA-N was > 100 µM in each case. Besides, the TGI with K-562 leukemia, in the assay with NCI-H23 lung and with SNB-19 CNS was > 100 µM throughout.
For `CCOP(=O)(OCC)C(Nc1ccc(F)cc1)c1cccc([N+](=O)[O-])c1` (stereo not given), the TGI in the assay with HCT-116 colon, in the assay with BT-549 breast, with PC-3 prostate, in the assay with OVCAR-5 ovarian, in the assay with UACC-257 melanoma and in the assay with MDA-N was > 100 µM throughout. The TGI with K-562 leukemia, with NCI-H23 lung, in the assay with SNB-19 CNS and in the assay on ACHN renal was > 100 µM throughout.
Take `COc1ccc(-c2c(C#N)c(-c3ccccc3)n(NS(=O)(=O)c3ccccc3)c(=O)c2C#N)cc1`: the TGI in the assay with HCT-116 colon, in the assay on BT-549 breast, with 786-0 renal, with PC-3 prostate, in the assay with OVCAR-5 ovarian and in the assay on UACC-257 melanoma was > 100 µM in each case. For the same molecule, the TGI with MDA-N, with K-562 leukemia, with SNB-19 CNS and with ACHN renal was > 100 µM each time.
Take `O=C(/C=C/c1ccc([N+](=O)[O-])cc1)c1nc2ccccc2[nH]1`: the TGI in the assay on HCT-116 colon is > 38.7 µM; in the assay with BT-549 breast, > 100 µM; with 786-0 renal, > 100 µM; in the assay with PC-3 prostate it was > 100 µM; with OVCAR-5 ovarian, 24.1 µM; in the assay with UACC-257 melanoma, 31.4 µM. Further, the TGI is > 100 µM with MDA-N, > 61.5 µM in the assay on K-562 leukemia, > 100 µM with SNB-19 CNS and > 100 µM in the assay with ACHN renal.
